From ChEMBL document CHEMBL1201862, “PubChem BioAssay data set” (2004)
Activity calls are given as the source filed them.

Columns and labels:
[1] = biological target: T1, DNA repair and recombination protein RAD54-like (Homo sapiens, UniProt Q92698); experiment: RAD54 Holliday junction migration blockers – biochemical, fluorescence, cherry-picked samples, dose series, confirmation (AID 651657); assay type: functional
T1 sequence (Q92698 whole entry): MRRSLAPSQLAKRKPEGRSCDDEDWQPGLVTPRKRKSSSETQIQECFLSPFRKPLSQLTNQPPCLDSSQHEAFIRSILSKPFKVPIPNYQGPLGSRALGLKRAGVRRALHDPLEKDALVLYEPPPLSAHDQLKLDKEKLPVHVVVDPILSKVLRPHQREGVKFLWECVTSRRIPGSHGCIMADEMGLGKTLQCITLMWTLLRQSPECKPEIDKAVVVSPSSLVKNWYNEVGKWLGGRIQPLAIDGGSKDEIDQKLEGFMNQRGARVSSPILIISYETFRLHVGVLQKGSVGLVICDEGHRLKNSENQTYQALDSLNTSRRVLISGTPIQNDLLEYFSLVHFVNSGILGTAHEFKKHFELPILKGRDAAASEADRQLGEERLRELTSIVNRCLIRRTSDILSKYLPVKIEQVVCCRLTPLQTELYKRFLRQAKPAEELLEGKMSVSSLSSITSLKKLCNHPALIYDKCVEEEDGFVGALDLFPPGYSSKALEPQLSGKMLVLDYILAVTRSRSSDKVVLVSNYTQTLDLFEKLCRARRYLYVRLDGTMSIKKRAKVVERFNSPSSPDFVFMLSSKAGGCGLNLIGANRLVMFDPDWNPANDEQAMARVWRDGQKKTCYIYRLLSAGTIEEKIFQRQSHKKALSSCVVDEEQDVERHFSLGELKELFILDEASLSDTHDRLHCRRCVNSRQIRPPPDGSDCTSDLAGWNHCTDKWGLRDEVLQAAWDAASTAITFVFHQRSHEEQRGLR

[2] = biological target: T2, Fructose-bisphosphate aldolase (Mycobacterium tuberculosis, UniProt P9WQA3); experiment: Fluorescence-based biochemical high throughput dose response assay for inhibitors of the fructose-bisphosphate aldolase (FBA) of M. tuberculosis.; assay type: functional
T2 sequence (P9WQA3 whole entry): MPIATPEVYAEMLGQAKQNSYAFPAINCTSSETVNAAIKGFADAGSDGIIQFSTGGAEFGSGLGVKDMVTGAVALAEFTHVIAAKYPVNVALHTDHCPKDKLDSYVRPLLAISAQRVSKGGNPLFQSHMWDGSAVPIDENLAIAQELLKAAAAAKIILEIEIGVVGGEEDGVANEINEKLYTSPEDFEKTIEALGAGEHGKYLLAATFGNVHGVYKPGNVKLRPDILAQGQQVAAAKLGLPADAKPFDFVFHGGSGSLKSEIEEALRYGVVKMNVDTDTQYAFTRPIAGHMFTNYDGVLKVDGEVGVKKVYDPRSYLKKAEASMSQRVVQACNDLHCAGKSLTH

[3] = tested on: Streptococcus sp. 'group A'; experiment: Streptococcus pyogenes SK(-)GAS viability under kanamycin – luminescence, BacTiterGlo, confirmation, counter-screen for streptokinase expression inhibitor project, dose response (AID 1900); assay type: functional, organism-based
[4] = cAMP pathway inhibition in counterscreen cell line – TR-FRET cAMP detection, counter-screen for MC4R biased antagonist project, dose response (AID 602305); assay type: functional, cell-based;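 also: U2OS cells stimulated with forskolin near its EC80 as the cAMP inducer; potency is for inhibition of forskolin-stimulated cAMP signaling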
[5] = Luminescence Cell-Based Dose Response HTS to Identify Inhibitors of 5'UTR Stem-Loop Driven Prion Protein mRNA Translation in H4 Neuroglioblastoma Cells. [Related pubchem assays: 1827 (Project Summary), 1813 (Primary HTS)]; assay type: functional
[6] = NIH3T3 cell viability loss – ATP luminescence, mouse fibroblasts, counter-screen, dose response (AID 2010); assay type: functional, cell-based;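 also: cells exposed to compound for about 90 hours before reading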
[7] = viability loss in HeLa cells – cytotoxicity control for MgcRacGAP inhibitor project, dose response (AID 624300); assay type: functional
INS1 = experiment: INS-1E survival protection against cytokine death – cell-based, luminescence, retest, dose response (AID 449756); assay type: functional; details: ins1;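 also: cell death triggered by IL-1 beta plus TNF-alpha plus IFN-gamma mixture; protective hits raise ATP signal compared with cytokine alone wells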
Streptococcus = experiment: GAS UMAA2166 growth inhibition – luminescence, BacTiterGlo, counter-screen for streptokinase expression inhibitor project, dose response (AID 1915); assay type: functional, organism-based;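 also: potency for reduction of bacterial viability or growth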
[8] = alpha-synuclein stem-loop luciferase translation blockers – H4 neuroglioma cells, luminescence, confirmation (AID 1988); assay type: functional, cell-based
[9] = Trypanosoma cruzi growth suppression in host cells – NIH3T3 host cells, beta-gal luminescence, confirmation (AID 2044); assay type: functional, cell-based;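 also: intracellular parasites grown in NIH/3T3 mouse fibroblasts as host cells; luminescent beta-galactosidase reporter signal from transgenic T. cruzi replicating inside host cells; inhibitors lower the luminescence signal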
[10] = luciferase reporter signal suppression in cells – H4 neuroglioma cells, luminescence, dose response (AID 1990); assay type: functional, cell-based
[11] = biological target: T3, Corticotropin-releasing factor receptor 2/Corticotropin-releasing factor-binding protein (Homo sapiens, UniProt P24387+Q13324); experiment: activators of CRF receptor 2 with binding protein – uHTS hits, confirmation (AID 602473); assay type: functional; details: read-out: EC50_Mean
T3 sequence (Q13324 whole entry): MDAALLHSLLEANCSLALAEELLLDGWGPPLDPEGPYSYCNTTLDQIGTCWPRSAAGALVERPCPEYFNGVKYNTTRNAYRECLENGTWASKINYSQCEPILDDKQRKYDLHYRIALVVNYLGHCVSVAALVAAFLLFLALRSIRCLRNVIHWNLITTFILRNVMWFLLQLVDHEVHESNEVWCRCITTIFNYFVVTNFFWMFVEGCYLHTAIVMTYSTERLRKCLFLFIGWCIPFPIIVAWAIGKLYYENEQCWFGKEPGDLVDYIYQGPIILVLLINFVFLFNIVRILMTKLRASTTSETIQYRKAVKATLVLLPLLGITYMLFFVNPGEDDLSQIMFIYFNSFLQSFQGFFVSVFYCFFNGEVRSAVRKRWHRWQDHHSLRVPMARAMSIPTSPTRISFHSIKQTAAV
T3 sequence (P24387 whole entry): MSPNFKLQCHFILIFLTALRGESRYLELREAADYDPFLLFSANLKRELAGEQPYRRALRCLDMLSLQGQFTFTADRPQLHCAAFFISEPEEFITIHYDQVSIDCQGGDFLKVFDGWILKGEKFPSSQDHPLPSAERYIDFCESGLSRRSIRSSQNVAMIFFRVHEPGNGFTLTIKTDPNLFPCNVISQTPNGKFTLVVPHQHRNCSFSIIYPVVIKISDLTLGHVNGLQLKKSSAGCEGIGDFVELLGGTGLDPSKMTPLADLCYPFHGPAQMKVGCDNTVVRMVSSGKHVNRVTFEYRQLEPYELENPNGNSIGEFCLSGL

[12] = HGIII-sPLA2 enzyme inhibition potency – biochemical, QFRET, IC50, dose response (AID 743457);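 also: green fluorescence rise as the enzyme cleaves BODIPY PC-A2 in liposomes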
Paired box protein Pax-8 = Paired box protein Pax-8 (Homo sapiens, UniProt Q06710); experiment: PAX8 transcriptional activity inhibition in RMG-I – RMG-I cells, luciferase, cherry-pick, dose response (AID 687027); assay type: functional, cell-based;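 also: luciferase reporter driven by Pax8 target thyroperoxidase promoter measured by SteadyGlo luminescence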
[13] = IGROV1 cell killing – plate reader, dry powder samples, PAX8 inhibitor project, dose response (AID 743043); assay type: functional, cell-based; details: IGROV-1

Sequence of Paired box protein Pax-8 (Q06710 whole entry): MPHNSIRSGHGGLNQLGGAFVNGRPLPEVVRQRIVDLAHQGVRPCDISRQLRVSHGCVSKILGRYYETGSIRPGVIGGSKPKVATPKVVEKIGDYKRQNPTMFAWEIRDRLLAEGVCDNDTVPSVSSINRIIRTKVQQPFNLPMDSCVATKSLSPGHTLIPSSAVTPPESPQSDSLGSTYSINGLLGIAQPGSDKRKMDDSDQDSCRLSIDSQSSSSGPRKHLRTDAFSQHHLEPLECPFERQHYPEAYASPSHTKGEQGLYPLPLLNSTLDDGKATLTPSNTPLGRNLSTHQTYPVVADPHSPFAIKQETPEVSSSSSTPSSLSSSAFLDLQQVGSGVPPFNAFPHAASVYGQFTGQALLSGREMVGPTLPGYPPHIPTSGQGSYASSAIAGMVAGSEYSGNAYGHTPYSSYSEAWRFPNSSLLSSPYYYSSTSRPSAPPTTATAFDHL

**Q.** Which AC50 [1] does the source give for `CC1CCN(CCCNC(=O)c2cc3c(=O)n(C)c4ccccc4c3n2C)CC1` here?
**A.** 27.8 µM (active)

**Q.** Which IC50 [2] does the source give for `CCCCN=C(S)N(CCN(CC)CC)Cc1cc2cc3c(cc2nc1O)OCO3` here?
**A.** 2.44 µM (active)

**Q.** Which EC50 [3] does the source give for `N=C(NCCCCCCNC(=N)NC(=N)Nc1ccc(Cl)cc1)NC(=N)Nc1ccc(Cl)cc1` here?
**A.** 0.517 µM (active)

**Q.** And the IC50 [4]?
**A.** 61.2 µM (inactive)

**Q.** And the EC50 [5]?
**A.** 18.2 µM (active)

**Q.** What about the EC50 [6] of the same compound?
**A.** 7.82 µM (active)

**Q.** And the CC50 [7]?
**A.** 37.9 µM (active)

**Q.** What about the AC50 (INS1) of the same compound?
**A.** 4.27 µM (active)

**Q.** What about the EC50 (Streptococcus) of the same compound?
**A.** 2.09 µM (active)

**Q.** What about the EC50 [8] of the same compound?
**A.** 9.88 µM (active)

**Q.** What about the EC50 [9] of the same compound?
**A.** 0.332 µM (active)

**Q.** And the EC50 [10]?
**A.** 8.64 µM (active)

**Q.** For `Cc1nnsc1-c1nc2ccccc2[nH]1`, which IC50 [2] is on record?
**A.** 1.4 µM (active)

**Q.** Which IC50 [2] does the source give for `Cn1c(-c2cccs2)nc2ccccc21` here?
**A.** 1.48 µM (active)

**Q.** With `Cc1nc2ccccc2c2oc(C(=O)NCCN3CCCCC3C)cc12` (stereo not given) as the compound, how does the AC50 [1] read?
**A.** 35.2 µM (active)

**Q.** Which results are given for `CC(C)CC(=O)NC(=S)NNC(=O)c1cccc([N+](=O)[O-])c1`?
**A.** EC50 [11]: > 53 µM (inactive); IC50 [12]: > 122 µM (inactive)

**Q.** Which IC50 [2] does the source give for `CC(C)(CNC(=O)c1cc(-c2ccc(Cl)s2)nc2ccccc12)N1CCOCC1` here?
**A.** 1.59 µM (active)

**Q.** Which AC50 (Paired box protein Pax-8) does the source give for `C[C@H](O)C#Cc1cnc2c(c1)C(=O)N([C@H](C)CO)C[C@@H](C)[C@@H](CN(C)Cc1ccc(-c3ccccc3)cc1)O2` here?
**A.** 1.66 µM (active)

**Q.** What about the AC50 [13] of the same compound?
**A.** 25.6 µM (active)
